For assay [1], the target named is PIK3CG (human) (UniProt P48736). Kind of assay: Assessment of PIK3CG Kinase Activity.
Assay [2] concerns the target PIK3CA (human) (UniProt P42336). Put plainly: Assessment of PIK3CA Kinase Activity.

Some results are limits rather than exact numbers.

From the Kinase Knowledgebase extract (Sharma et al. 2016) come the findings set out here.

Sequence of PIK3CG (human) (P48736 whole entry, looked up): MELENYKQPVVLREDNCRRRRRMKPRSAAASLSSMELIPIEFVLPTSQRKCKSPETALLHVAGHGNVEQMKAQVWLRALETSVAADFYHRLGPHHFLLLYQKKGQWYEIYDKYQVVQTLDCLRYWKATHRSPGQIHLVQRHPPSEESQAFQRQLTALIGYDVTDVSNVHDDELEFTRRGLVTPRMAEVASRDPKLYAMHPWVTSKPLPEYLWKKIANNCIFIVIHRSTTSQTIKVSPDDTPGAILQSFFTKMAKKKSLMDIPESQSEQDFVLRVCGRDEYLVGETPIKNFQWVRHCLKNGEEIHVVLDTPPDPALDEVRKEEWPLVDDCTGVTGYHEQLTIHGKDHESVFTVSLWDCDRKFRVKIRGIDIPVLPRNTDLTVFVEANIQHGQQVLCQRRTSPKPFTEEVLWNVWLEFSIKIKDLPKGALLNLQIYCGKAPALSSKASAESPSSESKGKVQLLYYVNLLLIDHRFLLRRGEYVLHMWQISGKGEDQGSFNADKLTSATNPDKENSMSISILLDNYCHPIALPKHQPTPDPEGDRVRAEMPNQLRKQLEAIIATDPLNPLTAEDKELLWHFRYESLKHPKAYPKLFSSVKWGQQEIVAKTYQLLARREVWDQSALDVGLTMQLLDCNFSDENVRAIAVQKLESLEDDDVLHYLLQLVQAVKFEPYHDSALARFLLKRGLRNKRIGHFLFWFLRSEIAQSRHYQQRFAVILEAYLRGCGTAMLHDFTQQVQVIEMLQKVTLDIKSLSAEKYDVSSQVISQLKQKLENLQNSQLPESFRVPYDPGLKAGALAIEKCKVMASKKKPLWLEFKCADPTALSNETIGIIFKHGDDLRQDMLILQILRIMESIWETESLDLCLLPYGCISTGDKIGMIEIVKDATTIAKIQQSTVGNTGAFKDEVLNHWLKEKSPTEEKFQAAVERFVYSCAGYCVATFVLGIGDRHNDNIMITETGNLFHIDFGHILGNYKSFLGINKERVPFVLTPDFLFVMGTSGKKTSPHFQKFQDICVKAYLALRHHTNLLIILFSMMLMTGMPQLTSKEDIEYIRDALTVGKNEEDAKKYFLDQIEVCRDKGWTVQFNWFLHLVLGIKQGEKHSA
Sequence of PIK3CA (human) (P42336 whole entry, looked up): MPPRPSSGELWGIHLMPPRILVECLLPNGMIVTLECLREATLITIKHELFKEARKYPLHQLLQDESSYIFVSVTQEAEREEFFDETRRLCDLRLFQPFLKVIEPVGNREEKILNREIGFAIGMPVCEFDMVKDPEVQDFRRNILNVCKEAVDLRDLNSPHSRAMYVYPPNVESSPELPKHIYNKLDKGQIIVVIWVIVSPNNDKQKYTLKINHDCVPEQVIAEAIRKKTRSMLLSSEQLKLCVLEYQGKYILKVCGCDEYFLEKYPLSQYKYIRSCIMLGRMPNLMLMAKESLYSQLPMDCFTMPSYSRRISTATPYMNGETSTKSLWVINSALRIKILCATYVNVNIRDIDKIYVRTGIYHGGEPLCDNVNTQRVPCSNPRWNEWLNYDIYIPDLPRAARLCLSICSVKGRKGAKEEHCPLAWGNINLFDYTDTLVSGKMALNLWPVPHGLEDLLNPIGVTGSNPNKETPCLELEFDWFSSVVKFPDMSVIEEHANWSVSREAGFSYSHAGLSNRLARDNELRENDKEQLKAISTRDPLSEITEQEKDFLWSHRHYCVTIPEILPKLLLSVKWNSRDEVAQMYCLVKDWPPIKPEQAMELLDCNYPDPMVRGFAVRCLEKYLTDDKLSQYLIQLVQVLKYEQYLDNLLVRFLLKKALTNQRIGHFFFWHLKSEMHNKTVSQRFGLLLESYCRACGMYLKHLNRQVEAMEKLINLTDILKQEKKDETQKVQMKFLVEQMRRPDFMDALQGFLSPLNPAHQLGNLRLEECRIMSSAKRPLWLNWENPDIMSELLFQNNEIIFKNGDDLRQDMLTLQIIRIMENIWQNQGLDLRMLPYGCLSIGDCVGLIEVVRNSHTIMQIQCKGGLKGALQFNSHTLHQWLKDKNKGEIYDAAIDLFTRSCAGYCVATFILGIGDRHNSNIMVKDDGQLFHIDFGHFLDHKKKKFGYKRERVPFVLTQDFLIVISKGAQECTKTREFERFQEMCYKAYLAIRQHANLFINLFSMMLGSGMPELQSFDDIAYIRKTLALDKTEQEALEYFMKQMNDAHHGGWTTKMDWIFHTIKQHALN

As for `CNC(=O)Nc1ccc(-c2nc3c(c(N4CC5CCC(C4)O5)n2)CCN(C)C3)cc1`, the IC50 – broadly, the concentration at which inhibition is half-maximal – is over 10000 nM in assay [1] and 3340 nM in assay [2].

`CN(C)C1CCN(C(=O)c2ccc(NC(=O)Nc3ccc(-c4nc5c(c(N6CC7CCC(C6)O7)n4)CCN(S(C)(=O)=O)C5)cc3)cc2)CC1`: the IC50 in assay [1] was over 10000 nM; in assay [2], 2690 nM.

With `CNC(=O)Nc1ccc(-c2nc3c(c(N4CC5CCC(C4)O5)n2)CCNC3)cc1`, the IC50 is over 10000 nM in assay [1] and 2720 nM in assay [2].

Consider `CN1CCc2c(nc(-c3ccc(NC(=O)Nc4cccnc4)cc3)nc2N2C3CCC2COC3)C1`, for which the concentration for half-maximal inhibition (IC50) stood at 12000 nM in assay [1] and 1110 nM in assay [2].

Turning to `CN(C)C1CCN(C(=O)c2ccc(NC(=O)Nc3ccc(-c4nc5c(c(N6C7CCC6COC7)n4)CCN(S(C)(=O)=O)C5)cc3)cc2)CC1`, the IC50 was over 10000 nM in assay [1] and 1330 nM in assay [2].

Turning to `CN1CCc2c(nc(-c3ccc(NC(=O)Nc4cccnc4)cc3)nc2N2CC3CCC(C2)O3)C1`, the results for the IC50 in assay [1] and in assay [2] were 9500 nM and 674 nM, respectively.

For `CN(C)C1CCN(C(=O)c2ccc(NC(=O)Nc3ccc(-c4nc5c(c(N6C7CCC6COC7)n4)CN(S(C)(=O)=O)C5)cc3)cc2)CC1`, the IC50 turned out to be 573 nM in assay [1] and 67 nM in assay [2].

As for `CN(C)C1CCN(C(=O)c2ccc(NC(=O)Nc3ccc(-c4nc5c(c(N6CC7CCC(C6)O7)n4)CCNC5)cc3)cc2)CC1`, the IC50 in assay [1] was found to be 3950 nM; in assay [2], 1120 nM.

Take `O=C(Nc1ccc(-c2nc3c(c(N4C5CCC4COC5)n2)CNC3)cc1)Nc1cccnc1`: the 50% inhibitory concentration (IC50) in assay [1] worked out at 841 nM; in assay [2] it was 25 nM.

On to `CN(C)C1CCN(C(=O)c2ccc(NC(=O)Nc3ccc(-c4nc5c(c(N6CC7CCC(C6)O7)n4)CNC5)cc3)cc2)CC1`, for which the IC50 in assay [1] was over 10000 nM; in assay [2], 110 nM.

With `O=C(Nc1ccc(-c2nc3c(c(N4C5CCC4COC5)n2)CCNC3)cc1)Nc1cccnc1`, the IC50 in assay [1] was over 10000 nM; in assay [2] it was 1790 nM.

Consider `CN(C)C1CCN(C(=O)c2ccc(NC(=O)Nc3ccc(-c4nc5c(c(N6C7CCC6COC7)n4)CCNC5)cc3)cc2)CC1`, for which the figures for the IC50 in assay [1] and in assay [2] were 3720 nM and 321 nM, respectively.

As to `CNC(=O)Nc1ccc(-c2nc3c(c(N4C5CCC4COC5)n2)CN(S(C)(=O)=O)C3)cc1`, the IC50 came out at 70 nM in assay [1] and 4 nM in assay [2].

As for `O=C(Nc1ccc(-c2nc3c(c(N4CC5CCC(C4)O5)n2)CNC3)cc1)Nc1cccnc1`, the results for the IC50 in assay [1] and in assay [2] were 1860 nM and 59 nM, respectively.

Consider `CS(=O)(=O)N1Cc2nc(-c3ccc(NC(=O)Nc4cccnc4)cc3)nc(N3CCOCC3)c2C1`, for which the IC50 in assay [1] amounted to 782 nM; in assay [2] it was 45 nM.

On to `CNC(=O)Nc1ccc(-c2nc3c(c(N4CCOCC4)n2)CNC3)cc1`, for which the IC50 in assay [1] is 67 nM; in assay [2], 5 nM.

On to `CS(=O)(=O)N1CCc2c(nc(-c3ccc(NC(=O)Nc4cccnc4)cc3)nc2N2C3CCC2COC3)C1`, for which the IC50 in assay [1] was determined as 3990 nM; in assay [2] it was 118 nM.

`O=C(Nc1ccc(-c2nc3c(c(N4CCOCC4)n2)CNC3)cc1)Nc1cccnc1`: the IC50 in assay [1] was 68 nM; in assay [2] it was 5 nM.

Turning to `CNC(=O)Nc1ccc(-c2nc3c(c(N4CCOCC4)n2)CN(S(C)(=O)=O)C3)cc1`, the IC50 in assay [1] was found to be 23 nM; in assay [2], 1 nM.

As for `CN(C)C1CCN(C(=O)c2ccc(NC(=O)Nc3ccc(-c4nc5c(c(N6CCOCC6)n4)CN(S(C)(=O)=O)C5)cc3)cc2)CC1`, the IC50 in assay [1] came out at 8 nM; in assay [2] it was 1 nM.

Consider `O=C(Nc1ccc(-c2nc3c(c(N4CC5CCC(C4)O5)n2)CCNC3)cc1)Nc1cccnc1`, for which the figures for the IC50 in assay [1] and in assay [2] were 14000 nM and 776 nM, respectively.

As for `CNC(=O)Nc1ccc(-c2nc3c(c(N4CC5CCC(C4)O5)n2)CCN(S(C)(=O)=O)C3)cc1`, the IC50 in assay [1] is over 10000 nM; in assay [2], 557 nM.

`CN1CCc2c(nc(-c3ccc(NC(=O)Nc4cccnc4)cc3)nc2N2CCOCC2)C1`: the 50% inhibitory concentration (IC50) in assay [1] is 1370 nM; in assay [2] it was 111 nM.

For the compound `CNC(=O)Nc1ccc(-c2nc3c(c(N4C5CCC4COC5)n2)CCNC3)cc1`, the results for the IC50 in assay [1] and in assay [2] were over 10000 nM and 3760 nM, respectively.

Regarding `CN(C)C1CCN(C(=O)c2ccc(NC(=O)Nc3ccc(-c4nc5c(c(N6CCOCC6)n4)CCN(S(C)(=O)=O)C5)cc3)cc2)CC1`, the half-maximal inhibitory concentration (IC50) in assay [1] stood at 3110 nM; in assay [2] it was 315 nM.

Turning to `CS(=O)(=O)N1Cc2nc(-c3ccc(NC(=O)Nc4cccnc4)cc3)nc(N3CC4CCC(C3)O4)c2C1`, the IC50 is over 10000 nM in assay [1] and 334 nM in assay [2].

Regarding `CN(C)C1CCN(C(=O)c2ccc(NC(=O)Nc3ccc(-c4nc5c(c(N6CCOCC6)n4)CNC5)cc3)cc2)CC1`, the IC50 in assay [1] is 74 nM; in assay [2], 9 nM.

On to `CNC(=O)Nc1ccc(-c2nc3c(c(N4C5CCC4COC5)n2)CCN(C)C3)cc1`, for which the IC50 in assay [1] was over 10000 nM; in assay [2], 4410 nM.

For `CNC(=O)Nc1ccc(-c2nc3c(c(N4C5CCC4COC5)n2)CNC3)cc1`, the IC50 in assay [1] stood at 7290 nM; in assay [2] it was 288 nM.

`CNC(=O)Nc1ccc(-c2nc3c(c(N4CC5CCC(C4)O5)n2)CNC3)cc1`: the results for the IC50 in assay [1] and in assay [2] were 3390 nM and 39 nM, respectively.

Turning to `CN(C)C1CCN(C(=O)c2ccc(NC(=O)Nc3ccc(-c4nc5c(c(N6CCOCC6)n4)CCNC5)cc3)cc2)CC1`, the IC50 in assay [1] came out at 224 nM; in assay [2] it was 31 nM.

For the compound `O=C(Nc1ccc(-c2nc3c(c(N4CCOCC4)n2)CCNC3)cc1)Nc1cccnc1`, the IC50 in assay [1] stood at 715 nM; in assay [2], 66 nM.

For `CNC(=O)Nc1ccc(-c2nc3c(c(N4CC5CCC(C4)O5)n2)CN(S(C)(=O)=O)C3)cc1`, the concentration for half-maximal inhibition (IC50) is 116 nM in assay [1] and 6 nM in assay [2].

With `CNC(=O)Nc1ccc(-c2nc3c(c(N4C5CCC4COC5)n2)CCN(S(C)(=O)=O)C3)cc1`, the figures for the IC50 in assay [1] and in assay [2] were over 10000 nM and 582 nM, respectively.

For `CS(=O)(=O)N1CCc2c(nc(-c3ccc(NC(=O)Nc4cccnc4)cc3)nc2N2CC3CCC(C2)O3)C1`, the IC50 in assay [1] was determined as 1240 nM; in assay [2] it was 107 nM.

For the compound `CS(=O)(=O)N1CCc2c(nc(-c3ccc(NC(=O)Nc4cccnc4)cc3)nc2N2CCOCC2)C1`, the IC50 in assay [1] stood at 44 nM; in assay [2], 3.5 nM.

Regarding `CN(C)C1CCN(C(=O)c2ccc(NC(=O)Nc3ccc(-c4nc5c(c(N6C7CCC6COC7)n4)CNC5)cc3)cc2)CC1`, the IC50 in assay [1] is over 10000 nM; in assay [2], 301 nM.

Take `CS(=O)(=O)N1Cc2nc(-c3ccc(NC(=O)Nc4cccnc4)cc3)nc(N3C4CCC3COC4)c2C1`: the values for the IC50 in assay [1] and in assay [2] were over 10000 nM and 732 nM, respectively.
